Key:
JAK1 = JAK1 (Homo sapiens (Human), UniProt P23458); test: Biochemical JAK and Tyk2 kinase assays (LanthaScreen): JAK1; details: 1 h pre-incubation, ATP at Km; pIC50 converted to pKi by Cheng-Prusoff
How it was run: (§1)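 Compound, GST-tagged JAK enzyme and GFP-labelled STAT1 peptide were first incubated together for 1 h at ambient temperature. ATP then started a 1 h reaction, which was stopped with EDTA and Tb-labelled anti-pSTAT1 (pTyr701) antibody. After 1 h, the 520/495 nm emission ratio gave percent inhibition; Ki derived by Cheng-Prusoff.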

Tyk2 = Tyk2 (Homo sapiens (Human), UniProt P29597); test: Biochemical JAK and Tyk2 kinase assays (LanthaScreen): Tyk2; details: 1 h pre-incubation, ATP at Km; pIC50 converted to pKi by Cheng-Prusoff
How it was run: as §1

[1] = tested on: IL-2 stimulated pSTAT5 in CD4+ T cells isolated from murine splenocytes (JAK3); test: Inhibition of IL-2 stimulated pSTAT5 in CD4+ T cells isolated from murine splenocytes; format: cell-based; details: Mus musculus, IL-2 7 ng/ml, read-out: pIC50, inhibition of IL-2 stimulated pSTAT5 (converted)
Procedure: Assay 3: Inhibition of IL-2 Stimulated pSTAT5 in CD4+ T Cells Isolated from Murine Splenocytes
The potency of test compounds for inhibition of interleukin-2 (IL-2) stimulated STATS phosphorylation was measured in the CD4+ T cells isolated from murine splenocytes using AlphaLisa. Because IL-2 signals through JAK3, this assay provides a measure of JAK3 cellular potency in mouse.
Phosphorylated STATS was measured via the AlphaLISA SureFire Ultra pSTAT5 (Tyr694/699) kit (PerkinElmer).
CD4+ T cells were isolated from murine splenocytes via negative selection on a magnetic column (Miltnyi Biotec) and re-suspended in assay media (phenol red-free DMEM (Life Technologies) supplemented with 10% FBS (ATCC)). Cells were seeded at 50,000 cells/well in assay media (2 μL/well). Compounds were serially diluted in DMSO and diluted to 2× final concentration in assay media. Compound was added (4 μl/well) and the cells incubated at 37° C., 5% CO2 for 1 hour, followed by the addition of IL-2 (R&D Systems; final concentration 7 ng/ml) in pre-warmed assay media (2 μL) for 30 minutes. After cytokine stimulation, cells were lysed with 2 μl of 5× AlphaLisa Lysis Buffer (PerkinElmer). The lysate was shaken at 900 rpm for 10 minutes at room temperature (RT). Phosphorylated STATS was measured via the pSTAT5 AlphaLisa kit (PerkinElmer). Freshly prepared acceptor bead mixture was dispensed onto lysate (5 ul) under green filtered <100 lux light. Plates were shaken at 900 rpm for 2 mins, briefly spun down, and incubated for 2 hrs at RT in the dark. Donor beads were dispensed (5 μl) under green filtered <100 lux light. Plates were shaken at 900 rpm for 2 mins, briefly spun down, and incubated overnight at RT in the dark. Luminescence was measured with excitation at 689 nm and emission at 570 nm using an EnVision plate reader (PerkinElmer) under green filtered <100 lux light.
To determine the inhibitory potency of test compounds in response to IL-2, the average emission intensity of beads bound to pSTATS was measured in primary CD4+ T cells isolated from murine splenocytes. IC50 values were determined from analysis of the inhibition curves of signal intensity vs compound concentration. Data are expressed as pIC50 (negative decadic logarithm IC50) values (mean±standard deviation).

Caco-2 cell monolayers = test: Caco-2 permeation assay; format: in vitro ADME, human; details: 5 μM, A to B, + Verapamil 25 μM, 120 minutes
From the text: Assay 5: Caco-2 Permeation Assay

[2] = Colon and plasma mouse pharmacokinetics; format: in vivo; details: mouse; ratio of colon AUC to plasma AUC; male Balb/c mice, 10 mg/kg PO
Procedure: Assay 6: Colon and Plasma Mouse Pharmacokinetics
6 male Balb/c mice were administered 10 mg/kg of compound in 1% HPMC+0.1% Tween-80 by PO administration. At 0.5, 2 and 6 hours after dose administration, animals were anesthetized, and terminal blood samples were collected by cardiac puncture, followed by collection of colon contents and colon tissue.
Blood samples were collected into K2EDTA and stored on wet ice until processed to plasma by centrifugation (12,000 rpm at 4° C.). Plasma samples were transferred to cluster tubes and placed on dry ice prior to freezer storage. The colon contents from each animal were collected at each terminal blood collection time point. The colon tissues were flushed with saline and patted dry. The colon and colon content tissues were homogenized using sterile water containing 0.1% formic acid 9:1 (water:tissue, v/w). The homogenized tissues and colon contents were transferred to cluster tubes and placed on dry ice prior to freezer storage. All samples were analyzed using LC/MS/MS against analytical standards.
The composite pharmacokinetic parameters of the compounds were determined by non-compartmental analysis using Phoenix WinNonlin Version 6 (Certara, St. Louis, Mo.) and using mean values from 2 animals/time point. For plasma concentrations below the quantification limit (BQL), the lowest concentration measurable or the BLOQ (below limit of quantification) was used.
A colon to plasma ratio was determined as the ratio of the colon AUC to the plasma AUC.

Sequence of JAK1 (P23458 whole entry): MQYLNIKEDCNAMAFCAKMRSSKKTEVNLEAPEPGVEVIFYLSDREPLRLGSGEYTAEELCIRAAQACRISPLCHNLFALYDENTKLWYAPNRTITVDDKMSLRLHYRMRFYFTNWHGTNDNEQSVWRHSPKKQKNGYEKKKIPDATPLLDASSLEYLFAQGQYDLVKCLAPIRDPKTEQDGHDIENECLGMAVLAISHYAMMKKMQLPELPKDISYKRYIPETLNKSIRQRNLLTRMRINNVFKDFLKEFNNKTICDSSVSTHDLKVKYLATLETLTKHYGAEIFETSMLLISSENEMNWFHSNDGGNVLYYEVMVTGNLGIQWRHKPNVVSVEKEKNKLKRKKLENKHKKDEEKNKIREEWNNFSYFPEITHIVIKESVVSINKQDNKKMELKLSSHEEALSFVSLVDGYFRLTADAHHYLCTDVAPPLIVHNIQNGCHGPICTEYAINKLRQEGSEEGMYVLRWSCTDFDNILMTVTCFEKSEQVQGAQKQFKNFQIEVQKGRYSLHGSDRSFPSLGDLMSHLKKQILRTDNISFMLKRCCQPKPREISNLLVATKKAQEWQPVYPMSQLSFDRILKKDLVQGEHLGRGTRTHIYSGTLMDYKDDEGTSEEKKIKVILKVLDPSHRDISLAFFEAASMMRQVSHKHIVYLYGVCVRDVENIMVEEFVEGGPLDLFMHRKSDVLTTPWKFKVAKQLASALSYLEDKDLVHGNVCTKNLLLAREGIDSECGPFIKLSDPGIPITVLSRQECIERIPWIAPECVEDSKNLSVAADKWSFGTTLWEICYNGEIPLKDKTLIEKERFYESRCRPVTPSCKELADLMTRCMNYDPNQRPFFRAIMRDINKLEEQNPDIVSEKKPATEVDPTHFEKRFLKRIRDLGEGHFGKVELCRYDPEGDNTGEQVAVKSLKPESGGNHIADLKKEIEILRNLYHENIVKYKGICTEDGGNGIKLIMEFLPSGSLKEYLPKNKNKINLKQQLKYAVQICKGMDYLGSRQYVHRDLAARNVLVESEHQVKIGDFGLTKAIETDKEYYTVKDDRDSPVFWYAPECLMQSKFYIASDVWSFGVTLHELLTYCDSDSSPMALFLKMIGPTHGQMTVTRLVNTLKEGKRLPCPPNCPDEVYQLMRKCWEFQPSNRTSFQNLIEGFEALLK
Sequence of Tyk2 (P29597 whole entry): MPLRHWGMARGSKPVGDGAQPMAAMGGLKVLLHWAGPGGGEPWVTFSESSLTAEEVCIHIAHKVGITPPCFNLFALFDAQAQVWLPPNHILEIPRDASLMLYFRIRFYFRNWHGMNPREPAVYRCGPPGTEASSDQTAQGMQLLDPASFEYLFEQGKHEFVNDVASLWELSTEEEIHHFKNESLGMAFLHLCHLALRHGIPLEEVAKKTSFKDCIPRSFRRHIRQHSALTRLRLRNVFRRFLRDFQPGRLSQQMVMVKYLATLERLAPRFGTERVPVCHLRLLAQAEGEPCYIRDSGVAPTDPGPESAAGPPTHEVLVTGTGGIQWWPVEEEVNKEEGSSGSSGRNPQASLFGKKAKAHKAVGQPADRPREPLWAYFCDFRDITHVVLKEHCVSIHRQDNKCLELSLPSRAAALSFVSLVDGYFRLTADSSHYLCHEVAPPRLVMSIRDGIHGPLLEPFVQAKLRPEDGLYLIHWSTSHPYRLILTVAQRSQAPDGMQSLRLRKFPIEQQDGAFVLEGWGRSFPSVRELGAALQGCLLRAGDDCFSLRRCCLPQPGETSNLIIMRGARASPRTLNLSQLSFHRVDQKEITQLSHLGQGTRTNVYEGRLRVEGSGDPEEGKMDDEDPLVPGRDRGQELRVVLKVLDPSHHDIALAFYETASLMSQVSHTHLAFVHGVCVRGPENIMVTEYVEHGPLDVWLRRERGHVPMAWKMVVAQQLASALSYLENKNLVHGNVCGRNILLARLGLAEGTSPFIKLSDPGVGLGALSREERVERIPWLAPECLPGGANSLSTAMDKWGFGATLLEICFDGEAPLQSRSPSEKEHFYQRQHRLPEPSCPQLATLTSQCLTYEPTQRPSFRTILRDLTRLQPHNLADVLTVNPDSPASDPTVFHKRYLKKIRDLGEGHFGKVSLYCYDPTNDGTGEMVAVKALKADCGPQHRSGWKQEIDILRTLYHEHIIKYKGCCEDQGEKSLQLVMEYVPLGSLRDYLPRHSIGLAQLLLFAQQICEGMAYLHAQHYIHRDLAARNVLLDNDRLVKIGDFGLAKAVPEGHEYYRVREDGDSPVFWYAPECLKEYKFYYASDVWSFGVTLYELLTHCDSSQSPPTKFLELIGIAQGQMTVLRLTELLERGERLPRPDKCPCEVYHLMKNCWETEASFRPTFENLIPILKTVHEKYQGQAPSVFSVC

| Structure (SMILES) | JAK 1 (pKi) (JAK1) | Tyk 2 (pKi) (Tyk2) | IC50 [1] [µM] | Caco Kp 10^−6 cm/sec (Caco-2 cell monolayers) | Kp [2] |
| --- | --- | --- | --- | --- | --- |
| C=CC(=O)N1CC(COc2cc(-c3cc(F)c(O)cc3CC)cn3cncc23)C1 [Example 13, 1-(3-(((6-(2-ethyl-5-fluoro-4-hydroxyphenyl)imidazo[1,5-a]pyridin-8-yl)oxy)methyl)azetidin-1-yl)prop-2-en-1-one] | E (E represents a pKi value of 7 or below (Ki of 100 nM or above)) | E (E represents a pKi value of 7 or below (Ki of 100 nM or above)) | < 1 | A (A represents a value below 5×10^−6 cm/sec) | > 200 |
| C=CC(=O)N1CC(COc2cc(-c3ccc(O)c(Cl)c3)cn3cncc23)C1 [Example 12, 1-(3-(((6-(3-chloro-4-hydroxyphenyl)imidazo[1,5-a]pyridin-8-yl)oxy)methyl)azetidin-1-yl)prop-2-en-1-one] | E (E represents a pKi value of 7 or below (Ki of 100 nM or above)) | E (E represents a pKi value of 7 or below (Ki of 100 nM or above)) | < 1 | A (A represents a value below 5×10^−6 cm/sec) | > 200 |

Reference: US10851102B2, “Imidazole and triazole containing bicyclic compounds as JAK inhibitors” (THERAVANCE BIOPHARMA R&D IP, LLC, priority 2019, dated 2020)
